Test results taken from patent publication US11691984B2, “Compounds and methods for DCAF-mediated protein degradation” (The Scripps Research Institute, priority 2018, dated 2023).

Columns and labels:
DCAF16 = molecular target: T1, DCAF16 (Homo sapiens, UniProt Q9NXF7); test: LC-MS/MS detection of KB02-PEG0-SLF-modified tryptic peptides on DCAF16; assay type: binding; conditions: HA-DCAF16-transfected HEK293T, 10 μM, 2 h
T1 construct: endogenously expressed DCAF16 in HEK293T cells; endogenous in cells; host or cells: HEK293T
T1 sequence (Q9NXF7 whole entry): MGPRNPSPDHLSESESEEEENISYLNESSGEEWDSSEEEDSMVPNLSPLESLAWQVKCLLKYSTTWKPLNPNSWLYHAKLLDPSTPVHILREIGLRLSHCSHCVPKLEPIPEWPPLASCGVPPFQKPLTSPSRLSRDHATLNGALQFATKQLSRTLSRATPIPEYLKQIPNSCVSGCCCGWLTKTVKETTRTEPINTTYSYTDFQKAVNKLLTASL
Protocol: HEK293T cells were transfected with HA-DCAF16 plasmid by PEI transfection reagent for 24 h and treated with DMSO or 10 μM KB02-PEG0-SLF for 2 h. Cells were collected and lysed in 1% NP-40 lysis buffer with complete protease inhibitor cocktail. HA immunoprecipitation was performed with 10 mg of total protein lysates to purify HA-DCAF16. After washing the HA resin three times with IP washing buffer and once with PBS, HA-DCAF16 protein was eluted by heating at 65° C. for 10 min with 8M urea in PBS, then reduced with 12.5 mM DTT at 65° C. for 15 min and alkylated with 25 mM iodoacetamide at 37° C. for 30 min. The protein solution was diluted with PBS to 2M urea and digested with 2 μg trypsin at 37° C. for 6 h. Tryptic peptides were acidified with 5% formic acid and loaded onto a silica capillary column (250 μm) packed with 3 cm of C18 resin (Aqua 5 Phenomenex). Peptides were analyzed on LTQ-Orbitrap Elite mass spectrometer (Thermo Scientific) coupled with a Thermo UltiMate 3000 UHPLC system. Peptides were separated on a capillary column packed with 10 cm of C18 resin (Aqua 5 Phenomenex) and a 5 μm tip. The flow rate was 0.5 μL/min. […]

[1] = molecular target: T2, HA-DCAF16 and FLAG-FKBP12_NLS (Homo sapiens, UniProt P62942+Q9NXF7); test: Co-immunoprecipitation of HA-DCAF16 with FLAG-FKBP12_NLS (ternary complex) in HEK293T cells; assay type: cell-based; conditions: 5 μM, MG132 10 μM, 2 hours
T2 construct: expressed in transfected cells; host or cells: HEK293T stably expressing FLAG-FKBP12_NLS, transiently transfected with HA-DCAF16 (pRK5)
T2 sequence (Q9NXF7 whole entry): as above
T2 sequence (P62942 2-108): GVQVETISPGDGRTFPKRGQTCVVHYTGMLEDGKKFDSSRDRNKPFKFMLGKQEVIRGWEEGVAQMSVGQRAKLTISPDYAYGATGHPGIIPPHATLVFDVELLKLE
T2 sequence (Q16531 whole entry partner): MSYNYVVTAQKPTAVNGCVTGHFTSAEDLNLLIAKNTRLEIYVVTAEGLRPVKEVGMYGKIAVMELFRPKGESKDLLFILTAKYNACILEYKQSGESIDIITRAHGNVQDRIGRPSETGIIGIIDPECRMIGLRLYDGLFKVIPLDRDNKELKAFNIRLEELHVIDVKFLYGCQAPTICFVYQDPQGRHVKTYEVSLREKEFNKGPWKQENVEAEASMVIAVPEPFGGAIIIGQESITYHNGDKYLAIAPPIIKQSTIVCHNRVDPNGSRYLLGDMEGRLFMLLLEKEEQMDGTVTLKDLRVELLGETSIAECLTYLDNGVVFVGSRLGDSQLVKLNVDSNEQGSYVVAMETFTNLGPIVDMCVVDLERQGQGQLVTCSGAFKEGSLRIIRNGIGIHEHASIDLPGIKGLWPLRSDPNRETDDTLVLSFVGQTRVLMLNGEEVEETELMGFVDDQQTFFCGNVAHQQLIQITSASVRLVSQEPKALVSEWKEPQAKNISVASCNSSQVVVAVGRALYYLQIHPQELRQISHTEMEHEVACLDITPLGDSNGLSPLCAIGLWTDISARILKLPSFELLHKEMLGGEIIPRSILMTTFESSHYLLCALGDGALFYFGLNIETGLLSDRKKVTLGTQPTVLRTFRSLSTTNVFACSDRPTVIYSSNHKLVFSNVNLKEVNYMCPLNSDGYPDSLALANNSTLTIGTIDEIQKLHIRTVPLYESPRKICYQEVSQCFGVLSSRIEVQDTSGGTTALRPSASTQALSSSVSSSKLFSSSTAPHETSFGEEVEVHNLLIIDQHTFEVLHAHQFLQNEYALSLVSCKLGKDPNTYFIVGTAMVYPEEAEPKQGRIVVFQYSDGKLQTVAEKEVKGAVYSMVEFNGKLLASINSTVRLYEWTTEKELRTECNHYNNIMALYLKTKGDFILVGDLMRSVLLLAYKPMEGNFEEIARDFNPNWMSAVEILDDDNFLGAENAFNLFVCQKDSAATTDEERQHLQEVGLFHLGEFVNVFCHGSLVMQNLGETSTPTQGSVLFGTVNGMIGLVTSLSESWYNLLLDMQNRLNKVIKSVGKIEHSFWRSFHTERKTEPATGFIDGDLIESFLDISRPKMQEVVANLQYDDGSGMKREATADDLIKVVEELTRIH
Protocol: (§1) Cells were collected and lysed in 1% NP-40 lysis buffer (25 mM Tris-HCl pH 7.4, 150 mM NaCl, 10% glycerol, 1% Nonidet P-40) with complete protease inhibitor cocktail (Roche). Cells were vortexed and sonicated for 5 pulses (40%, 4). The supernatant was collected after centrifugation at 16,000 g for 10 min at 4° C. Protein concentration was determined by DC assay (Bio-Rad). Protein lysate was heated at 95° C. for 5 min in 1× Laemmli sample buffer. Proteins were resolved by 12% or 14% Novex Tris-Glycine Mini Gels (Invitrogen) and transferred to polyvinylidene fluoride (PVDF) membrane (0.2 Bio-Rad). The membrane was blocked with 5% BSA in TBST buffer (0.1% Tween 20, 20 mM Tris-HCl 7.6, 150 mM NaCl) at room temperature for 1 h. The antibody was diluted with fresh 5% BSA in TBST buffer (1:10000 dilution for FLAG, HA and β-Actin, 1:1000 dilution for others) and incubated with membrane (1 h room temperature for FLAG, HA and β-Actin, overnight 4° C. for others). Membrane was washed three times with TBST buffer and incubated with secondary antibody (1:5000 dilution in 5% BSA in TBST) at room temperature for 1 h. Membrane was washed three times with TBST buffer. The chemiluminescence signal in membrane was recorded after developing in ECL or ECL plus western blotting detection reagent using CL-XPosure film (Thermo Scientific). Relative band intensities were quantified using ImageJ.
Cells were collected and lysed in 1% NP-40 lysis buffer with complete protease inhibitor cocktail on ice for 10 min, followed by 5 pulses of sonication (40%, 4). After centrifugation at 16,000 g for 10 min at 4° C., the supernatant was collected. FLAG affinity gel (20 μL slurry per sample) was incubated with protein lysates at 4° C. for 1 h and washed four times with IP washing buffer. The affinity gel was heated at 95° C. for 10 min in 2× Laemmli sample buffer, followed by western blot analysis.

FLAG-FKBP12_NLS = FLAG-FKBP12_NLS (Homo sapiens, UniProt P62942); test: Western blot of stably expressed FLAG-FKBP12_NLS in MDA-MB-231 cells; assay type: cell-based; parameters: expressed in transfected cells; host or cells: HEK293T, MDA-MB-231 and HEK293 DCAF16+/+ and DCAF16-/- clones (lentiviral pCDH-CMV-MCS-EF1-Puro); conditions: 1 μM, 8 hours
FLAG-FKBP12_NLS, sequence (P62942 whole entry): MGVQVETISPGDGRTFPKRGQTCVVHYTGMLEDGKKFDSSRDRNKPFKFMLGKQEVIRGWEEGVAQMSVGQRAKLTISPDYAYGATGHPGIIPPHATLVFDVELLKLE
Protocol: FLAG-FKBP12 or FLAG-FKBP12_NLS lentivirus was generated by co-transfection of FLAG-FKBP12 or FLAG-FKBP12_NLS, pCMV-dR8.2 and pMD2.G into HEK 293T cells using FuGene 6 transfection reagent (Promega). Virus-containing medium were collected 48 h after transfection, filtered with […] filter, and used to transduce HEK293T and MDA-MB-231 cells in the presence of 10 μg/mL polybrene (Santa Cruz). 72 h after transduction, puromycin (2 μg/mL) was added to cells. HEK293T cells stably expressing FLAG-FKBP12 or FLAG-FKBP12_NLS were obtained after puromycin selection for 7 days. HEK293T cells stably expressing pCDH empty vector were generated in parallel as control.
as §1

CCC(C)(C)C(=O)C(=O)N1CCCC[C@H]1C(=O)O[C@H](CCc1ccc(OC)c(OC)c1)c1cccc(NC(=O)COc2ccc3c(c2)CCCN3C(=O)CCl)c1 [KB02-PEG0-SLF, (R)-1-(3-(2-((1-(2-chloroacetyl)-1,2,3,4-tetrahydroquinolin-6-yl)oxy)acetamido)phenyl)-3-(3,4-dimethoxyphenyl)propyl (5)-1-(3,3-dimethyl-2-oxopentanoyl)piperidine-2-carboxylate]
modified DCAF16 tryptic peptide identified (DCAF16): tryptic peptide (aa 168-184) containing C173 and C177-179 | co-immunoprecipitation of HA-DCAF16 with FLAG-FKBP12_NLS [1]: co-immunoprecipitated with HA-DCAF16 | degradation of FLAG-FKBP12_NLS in MDA-MB-231 cells (FLAG-FKBP12_NLS): degradation of stably expressed FLAG-FKBP12_NLS
